Patent US6913935B1, “Multiple assay method” (Amersham Biosciences UK Limited, priority 1998, dated 2005)

Target: streptavidin (Streptomyces avidinii, UniProt P22629)
Assay: Competition of Cy-5 labelled biotin binding to streptavidin coated beads, mixed wells analysed by flow cytometry
Conditions: well 2, bead type B (purple fluor), buffer containing biotin added before Cy-5 labelled biotin; compared with well 1 (buffer only)
Protocol: Streptavidin coated bead type A (yellow fluor) and bead type B (purple fluor) were pipetted into two separate wells of a microtitre plate, such that well 1 contained bead A and well 2 contained bead B. Buffer was added to well 1 and buffer containing biotin was added to well 2. Following mixing arid incubation a solution of Cy-5 labelled biotin in buffer was added to both wells. Following further incubation the contents of well 1 and well 2 were combined and the mixture analysed by flow cytometry.

Sequence of streptavidin (P22629 25-183, species assumed): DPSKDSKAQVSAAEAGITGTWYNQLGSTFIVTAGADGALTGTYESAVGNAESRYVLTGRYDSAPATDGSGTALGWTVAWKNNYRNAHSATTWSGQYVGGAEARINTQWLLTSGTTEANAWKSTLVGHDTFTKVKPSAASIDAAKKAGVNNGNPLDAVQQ

Compound: O=C(O)CCCC[C@@H]1SC[C@@H]2NC(=O)N[C@@H]21 [biotin]
- Cy-5 fluorescence associated with bead type (Cy-5-biotin binding to streptavidin on the bead surface): low Cy-5-biotin binding
